According to patent publication US20100168084A1, “Therapeutic compounds and related methods of use” (priority 2008, published 2010):
Where two headings read alike, the source gives them in different places.

What was measured:
[1] = biological target: T1, sirtuin protein (Homo sapiens, UniProt Q96EB6); assay: MS assay (IC50 MS ASSAY / ED50 MS / FOLD ACTIVATION MS); assay type: biochemical; parameters: scale not given here
T1 sequence (Q96EB6 2-747 limits assumed): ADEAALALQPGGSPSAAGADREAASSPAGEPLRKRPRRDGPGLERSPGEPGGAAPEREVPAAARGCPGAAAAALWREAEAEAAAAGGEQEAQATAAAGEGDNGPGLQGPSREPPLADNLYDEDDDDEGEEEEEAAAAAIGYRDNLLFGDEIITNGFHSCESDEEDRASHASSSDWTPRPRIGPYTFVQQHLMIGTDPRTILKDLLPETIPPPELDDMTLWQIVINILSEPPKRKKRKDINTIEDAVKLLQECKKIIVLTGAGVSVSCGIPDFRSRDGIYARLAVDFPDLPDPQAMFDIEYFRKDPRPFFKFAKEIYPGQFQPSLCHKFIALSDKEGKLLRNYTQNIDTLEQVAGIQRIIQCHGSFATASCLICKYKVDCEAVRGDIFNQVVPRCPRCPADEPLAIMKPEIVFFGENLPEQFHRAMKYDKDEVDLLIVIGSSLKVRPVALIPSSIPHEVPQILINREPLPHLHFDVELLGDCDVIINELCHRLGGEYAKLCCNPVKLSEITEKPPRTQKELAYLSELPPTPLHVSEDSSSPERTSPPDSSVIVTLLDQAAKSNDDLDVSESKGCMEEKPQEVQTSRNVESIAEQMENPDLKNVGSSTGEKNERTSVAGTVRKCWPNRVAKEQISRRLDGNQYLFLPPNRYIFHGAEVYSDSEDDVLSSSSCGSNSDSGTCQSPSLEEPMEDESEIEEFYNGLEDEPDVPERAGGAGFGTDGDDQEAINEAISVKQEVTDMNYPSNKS

[2] = tested on: sirtuin protein; assay: FP assay (IC50 FP ASSAY / ED50 FP); assay type: biochemical; conditions: Table 4
[3] = biological target: cytochrome oxidase (Complex IV) (Homo sapiens, UniProt P00395); conditions: cited from earlier work

| ED50 MS ASSAY [1] | ED50 MS ASSAY ([1]; Table 4, class symbols) | ED50 MS ASSAY ([1]; Table 4, class symbols A′, A, B, D, NA, legend not given) | ED50 MS ASSAY ([1]; class symbols (A′, A, B, D, NA), no legend given) | Compound | ED50 FP ASSAY [2] | concentration that inhibits cytochrome oxidase (Complex IV) [3] |
| --- | --- | --- | --- | --- | --- | --- |
| A′ | A′ | A′ | A′ | O=C1CN(Cc2csc3nc(-c4ccccc4NC(=O)c4cnc5ccccc5n4)cn23)CCN1 [Compound 677] | A′ | – |
| – | – | – | – | [N]=O [Nitric oxide] | – | about 1 micromolar |
